In publication PMC8671953 (Nanotheranostics, 2022):

Experiments:
[1] = target: human recombinant GCPII enzyme (Homo sapiens, UniProt Q04609); assay: GCPII activity assay (IC50), NAA-[3H]-G hydrolysis; type: biochemical; conditions: human recombinant GCPII 40 pM, NAA-[3H]-G 30 nM, 37 °C, 20 min
GCPII = tested on: GCPII; set-up: method as in PMID 23169655, PMID 26826008; conditions: ref [8], [9]; cited from earlier work
EAE mice = conditions: cited from earlier work
[2] = cited from earlier work

Chain of human recombinant GCPII enzyme (Q04609 whole entry): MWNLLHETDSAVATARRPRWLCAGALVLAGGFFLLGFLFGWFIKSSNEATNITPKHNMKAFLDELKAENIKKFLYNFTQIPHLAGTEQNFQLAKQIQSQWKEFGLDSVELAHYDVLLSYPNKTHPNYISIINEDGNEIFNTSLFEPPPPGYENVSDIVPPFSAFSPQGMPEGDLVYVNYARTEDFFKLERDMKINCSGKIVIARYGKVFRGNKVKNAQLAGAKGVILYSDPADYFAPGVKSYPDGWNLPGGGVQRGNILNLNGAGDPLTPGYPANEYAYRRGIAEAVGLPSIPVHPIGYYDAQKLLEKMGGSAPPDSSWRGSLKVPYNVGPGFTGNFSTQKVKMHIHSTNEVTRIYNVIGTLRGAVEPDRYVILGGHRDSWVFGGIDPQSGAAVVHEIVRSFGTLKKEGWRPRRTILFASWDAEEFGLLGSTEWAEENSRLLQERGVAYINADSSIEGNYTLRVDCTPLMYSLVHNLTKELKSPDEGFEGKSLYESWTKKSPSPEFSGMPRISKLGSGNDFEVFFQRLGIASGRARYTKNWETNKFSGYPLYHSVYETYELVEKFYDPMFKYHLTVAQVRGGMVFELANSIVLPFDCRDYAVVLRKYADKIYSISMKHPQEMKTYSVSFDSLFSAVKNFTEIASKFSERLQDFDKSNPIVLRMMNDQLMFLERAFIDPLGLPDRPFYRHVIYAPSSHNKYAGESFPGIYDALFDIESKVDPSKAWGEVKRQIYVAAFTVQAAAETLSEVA

SMILES	IC50 [1] [nM]	IC50 (GCPII) [nM]	effect on EAE disease score (EAE mice; free 2-PMPA treatment, ref [8], [9])	minimal dose required for positive behavioral effects and alterations in brain NAAG levels (EAE mice; previous dose response studies, ref [9]) [mg/kg]	clearance from circulation ([2]; free drug, ref [9])	brain penetration (AUCbrain/AUCplasma) ([2]; ref [37])	oral bioavailability (F) ([2]; ref [37]) [%]
[N-]=[N+]=NCCOCCOCCOCCOCCOCCOCCOCCOCCOCCOCCOC(=O)CCC(CP(=O)(O)O)C(=O)O (stereo not shown) [2-PMPA-PEG-azide]	1.6						
O=C(O)CCC(CP(=O)(O)O)C(=O)O (stereo not shown) [2-PMPA, 2-(phosphonomethyl)-pentanedioic acid]		[…]	no effect on EAE disease score	[…]	cleared from circulation within six hours	< 0.02	< 2
